Assay results published in patent publication US20250144094A1 (Erasca, Inc., priority 2021, published 2025).

Target: Recombinant human ULK1 (1-649) (Homo sapiens (Human), UniProt O75385)
Assay: ULK1 ADP Glo kinase activity assay (MBP substrate)
Settings: 25° C., 40 minutes, read-out: ULK1 biochemical IC50
Procedure: Recombinant human ULK1 (1-649) protein expressed in Sf9 insect cells was obtained from SignalChem (Vancouver, BC), catalog #U01-11G. Active kinase was purified via N-terminal GST tag to >85% purity.
ADP GLO Kinase Assay Reagents were obtained from Promega Corp (Madison, WI), catalog #V9104.
MBP (myelin basic protein) substrate, bovine, purified, was obtained from Sigma (St. Louis, MO), catalog #M1891.
ULK1 inhibitor potency was determined using the luminescent ADP Glo Kinase Assay (Promega), a universal ADP detection system that measures kinase activity by quantifying the amount of ADP produced during a kinase reaction. ULK1 kinase reactions are performed in a standard 96-well microplate (20 uL reaction volume) at 25° C. for 40 minutes in the presence or absence of the test compound (12-point dilution series starting at 10 uM). Addition of MBP substrate and ATP initiates the kinase reaction.
The standard ADP Glo assay is performed in two steps. In step one, following the kinase reaction, an equal volume of ADP-Glo™ Reagent (20 uL) is added to terminate the kinase reaction and deplete the remaining ATP. In the second step, the Kinase Detection Reagent (10 uL) is added to simultaneously convert ADP to ATP and allow the newly synthesized ATP to be measured using a luciferase/luciferin reaction. Step two of the ADP Glo assay is performed in a white 384-well plate (20 uL final volume). Thirty minutes after the addition of the Detection reagent, light generated from the luciferase reaction is measured (1 second exposure) using a microplate compatible luminometer (CLARIOstar, BMG Labtech).
Inhibition of ULK1 kinase activity is determined for each test compound by comparison to DMSO only control wells. Inhibitor IC50 was calculated by plotting the change in luminescence after 30 minutes (response) versus inhibitor concentration (in log molar) then applying the four-parameter variable slope curve fit (GraphPad Prism). Inhibition of ULK1 in biochemical assay is found in Table 3.

Sequence of Recombinant human ULK1 (1-649) (O75385 1-649): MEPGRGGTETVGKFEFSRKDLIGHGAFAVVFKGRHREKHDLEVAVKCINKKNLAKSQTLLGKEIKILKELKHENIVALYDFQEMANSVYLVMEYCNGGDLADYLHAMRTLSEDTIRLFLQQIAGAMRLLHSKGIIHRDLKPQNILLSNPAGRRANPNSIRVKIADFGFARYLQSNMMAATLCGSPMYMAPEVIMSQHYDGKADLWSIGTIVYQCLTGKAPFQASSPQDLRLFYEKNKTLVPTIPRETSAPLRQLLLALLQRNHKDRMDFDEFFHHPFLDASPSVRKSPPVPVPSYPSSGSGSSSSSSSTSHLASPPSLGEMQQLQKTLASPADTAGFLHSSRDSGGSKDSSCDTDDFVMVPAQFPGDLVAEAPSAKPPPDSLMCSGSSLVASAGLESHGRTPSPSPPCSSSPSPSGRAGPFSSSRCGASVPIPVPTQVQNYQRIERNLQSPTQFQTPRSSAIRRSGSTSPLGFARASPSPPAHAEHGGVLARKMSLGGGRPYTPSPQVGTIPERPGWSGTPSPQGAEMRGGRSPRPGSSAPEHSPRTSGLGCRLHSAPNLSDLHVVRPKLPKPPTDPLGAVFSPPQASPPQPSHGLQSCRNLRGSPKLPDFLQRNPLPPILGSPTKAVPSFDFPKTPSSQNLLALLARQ

| SMILES | IC50 |
| --- | --- |
| Nc1csc(-c2nc(Nc3cc4c(cc3Cl)CNCC4)ncc2C(F)(F)F)c1 [Example 15, N-(4-(4-aminothiophen-2-yl)-5-(trifluoromethyl)pyrimidin-2-yl)-7-chloro-1,2,3,4-tetrahydroisoquinolin-6-amine] | 0.01 to 0.05 µM |
| CS(=O)(=O)Nc1csc(-c2nc(Nc3cc4c(cc3Cl)CNCC4)ncc2C(F)(F)F)c1 [Example 16, N-(5-(2-((7-chloro-1,2,3,4-tetrahydroisoquinolin-6-yl)amino)-5-(trifluoromethyl)pyrimidin-4-yl)thiophen-3-yl)methanesulfonamide] | ≤ 0.01 µM |
| CN1Cc2cc(Cl)c(Nc3ncc(C(F)(F)F)c(-c4cc(C(N)=O)cs4)n3)cc2C1 [Example 17, 5-(2-((6-Chloro-2-methylisoindolin-5-yl)amino)-5-(trifluoromethyl)pyrimidin-4-yl)thiophene-3-carboxamide] | ≤ 0.01 µM |
| FC(F)(F)c1cnc(Nc2cc3c(cc2Cl)CNCC3)nc1-c1cc(-c2ncco2)cs1 [Example 18, 7-Chloro-N-(4-(4-(oxazol-2-yl)thiophen-2-yl)-5-(trifluoromethyl)pyrimidin-2-yl)-1,2,3,4-tetrahydroisoquinolin-6-amine] | 0.01 to 0.05 µM |
| CN1Cc2cc(Nc3ncc(C(F)(F)F)c(-c4cc(C(N)=O)cs4)n3)c(C3CC3)cc2C1 [Example 19, 5-(2-((6-Cyclopropyl-2-methylisoindolin-5-yl)amino)-5-(trifluoromethyl)pyrimidin-4-yl)thiophene-3-carboxamide] | ≤ 0.01 µM |
| CCc1cc2c(cc1Nc1ncc(C(F)(F)F)c(-c3cc(C(N)=O)cs3)n1)CN(C)C2 [Example 20, 5-(2-((6-Ethyl-2-methylisoindolin-5-yl)amino)-5-(trifluoromethyl)pyrimidin-4-yl)thiophene-3-carboxamide] | 0.01 to 0.05 µM |
| CN1CCc2sc(-c3nc(Nc4cc5c(cc4Cl)CNCC5)ncc3C(F)(F)F)cc2C1=O [Example 21, 2-(2-((7-Chloro-1,2,3,4-tetrahydroisoquinolin-6-yl)amino)-5-(trifluoromethyl)pyrimidin-4-yl)-5-methyl-6,7-dihydrothieno[3,2-c]pyridin-4(5H)-one] | ≤ 0.01 µM |
| CCN1CCc2sc(-c3nc(Nc4cc5c(cc4Cl)CNCC5)ncc3C(F)(F)F)cc2C1=O [Example 22, 2-(2-((7-chloro-1,2,3,4-tetrahydroisoquinolin-6-yl)amino)-5-(trifluoromethyl)pyrimidin-4-yl)-5-ethyl-6,7-dihydrothieno[3,2-c]pyridin-4(5H)-one] | ≤ 0.01 µM |
| O=c1[nH]ccc2sc(-c3nc(Nc4cc5c(cc4Cl)CNCC5)ncc3C(F)(F)F)cc12 [Example 23, 2-(2-((7-Chloro-1,2,3,4-tetrahydroisoquinolin-6-yl)amino)-5-(trifluoromethyl)pyrimidin-4-yl)thieno[3,2-c]pyridin-4(5H)-one] | ≤ 0.01 µM |
| O=c1[nH]ncc2sc(-c3nc(Nc4cc5c(cc4Cl)CNCC5)ncc3C(F)(F)F)cc12 [Example 24, 2-(2-((7-Chloro-1,2,3,4-tetrahydroisoquinolin-6-yl)amino)-5-(trifluoromethyl)pyrimidin-4-yl)thieno[2,3-d]pyridazin-4(5H)-one] | 0.01 to 0.05 µM |
| N#Cc1csc(-c2nc(Nc3cc4c(cc3Cl)CNCC4)ncc2C(F)(F)F)c1 [Example 25, 5-(2-((7-Chloro-1,2,3,4-tetrahydroisoquinolin-6-yl)amino)-5-(trifluoromethyl)pyrimidin-4-yl)thiophene-3-carbonitrile] | 0.01 to 0.05 µM |
| NC(=O)c1csc(-c2nc(Nc3cc4c(cc3Cl)CNCC4)ncc2C(N)=O)c1 [Example 26, 4-(4-Carbamoylthiophen-2-yl)-2-((7-chloro-1,2,3,4-tetrahydroisoquinolin-6-yl)amino)pyrimidine-5-carboxamide] | > 0.5 µM |
| NS(=O)(=O)c1csc(-c2nc(Nc3cc4c(cc3Cl)CNCC4)ncc2C(F)(F)F)c1 [Example 27, 5-(2-((7-Chloro-1,2,3,4-tetrahydroisoquinolin-6-yl)amino)-5-(trifluoromethyl)pyrimidin-4-yl)thiophene-3-sulfonamide] | ≤ 0.01 µM |
| O=C1NCCCc2sc(-c3nc(Nc4cc5c(cc4Cl)CNCC5)ncc3C(F)(F)F)cc21 [Example 28, 2-(2-((7-Chloro-1,2,3,4-tetrahydroisoquinolin-6-yl)amino)-5-(trifluoromethyl)pyrimidin-4-yl)-5,6,7,8-tetrahydro-4H-thieno[3,2-c]azepin-4-one] | ≤ 0.01 µM |
| O=C1NCCc2sc(-c3nc(Nc4cc5c(cc4C4CC4)CNCC5)ncc3C(F)(F)F)cc21 [Example 29, 2-(2-((7-Cyclopropyl-1,2,3,4-tetrahydroisoquinolin-6-yl)amino)-5-(trifluoromethyl)pyrimidin-4-yl)-6,7-dihydrothieno[3,2-c]pyridin-4(5H)-one] | ≤ 0.01 µM |
| Cn1ccc2sc(-c3nc(Nc4cc5c(cc4Cl)CNCC5)ncc3C(F)(F)F)cc2c1=O [Example 30, 2-(2-((7-Chloro-1,2,3,4-tetrahydroisoquinolin-6-yl)amino)-5-(trifluoromethyl)pyrimidin-4-yl)-5-methylthieno[3,2-c]pyridin-4(5H)-one] | ≤ 0.01 µM |
| Cn1ncc2sc(-c3nc(Nc4cc5c(cc4Cl)CNCC5)ncc3C(F)(F)F)cc2c1=O [Example 31, 2-(2-((7-Chloro-1,2,3,4-tetrahydroisoquinolin-6-yl)amino)-5-(trifluoromethyl)pyrimidin-4-yl)-5-methylthieno[2,3-d]pyridazin-4(5H)-one] | ≤ 0.01 µM |
| CS(=O)(=O)c1csc(-c2nc(Nc3cc4c(cc3Cl)CNCC4)ncc2C(F)(F)F)c1 [Example 32, 7-Chloro-N-(4-(4-(methylsulfonyl)thiophen-2-yl)-5-(trifluoromethyl)pyrimidin-2-yl)-1,2,3,4-tetrahydroisoquinolin-6-amine] | ≤ 0.01 µM |
| O=C1NCCc2sc(-c3nc(Nc4cc5c(cc4Cl)CNC5)ncc3C(F)(F)F)cc21 [Example 33, 2-(2-((6-Chloroisoindolin-5-yl)amino)-5-(trifluoromethyl)pyrimidin-4-yl)-6,7-dihydrothieno[3,2-c]pyridin-4(5H)-one] | ≤ 0.01 µM |
| CCc1cc2c(cc1Nc1ncc(C(F)(F)F)c(-c3cc4c(s3)CCNC4=O)n1)CCNC2 [Example 34, 2-(2-((7-ethyl-1,2,3,4-tetrahydroisoquinolin-6-yl)amino)-5-(trifluoromethyl)pyrimidin-4-yl)-6,7-dihydrothieno[3,2-c]pyridin-4(5H)-one] | ≤ 0.01 µM |
| CSc1cc2c(cc1Nc1ncc(C(F)(F)F)c(-c3cc4c(s3)CCNC4=O)n1)CCNC2 [Example 35, 2-(2-((7-(Methylthio)-1,2,3,4-tetrahydroisoquinolin-6-yl)amino)-5-(trifluoromethyl)pyrimidin-4-yl)-6,7-dihydrothieno[3,2-c]pyridin-4(5H)-one] | ≤ 0.01 µM |
| CN1CCN(c2ccc(Nc3ncc(C(F)(F)F)c(-c4cc5c(s4)CCNC5=O)n3)c(C3CC3)c2)CC1 [Example 36, 2-(2-((2-Cyclopropyl-4-(4-methylpiperazin-1-yl)phenyl)amino)-5-(trifluoromethyl)pyrimidin-4-yl)-6,7-dihydrothieno[3,2-c]pyridin-4(5H)-one] | ≤ 0.01 µM |
| CCc1cc(N2CCN(C)CC2)ccc1Nc1ncc(C(F)(F)F)c(-c2cc(C(N)=O)cs2)n1 [Example 37, 5-(2-((2-Ethyl-4-(4-methylpiperazin-1-yl)phenyl)amino)-5-(trifluoromethyl)pyrimidin-4-yl)thiophene-3-carboxamide] | ≤ 0.01 µM |
| CP(C)(=O)c1csc(-c2nc(Nc3cc4c(cc3Cl)CNCC4)ncc2C(F)(F)F)c1 [Example 38, (5-(2-((7-Chloro-1,2,3,4-tetrahydroisoquinolin-6-yl)amino)-5-(trifluoromethyl)pyrimidin-4-yl)thiophen-3-yl)dimethylphosphine oxide] | 0.01 to 0.05 µM |
| CCc1cc(N2CCN(C)CC2)ccc1Nc1ncc(C(F)(F)F)c(-c2cc3c(s2)CCNC3=O)n1 [Example 39, 2-(2-((2-ethyl-4-(4-methylpiperazin-1-yl)phenyl)amino)-5-(trifluoromethyl)pyrimidin-4-yl)-6,7-dihydrothieno[3,2-c]pyridin-4(5H)-one] | ≤ 0.01 µM |
| CC1(C)NC(=O)c2cc(-c3nc(Nc4cc5c(cc4Cl)CNCC5)ncc3C(F)(F)F)sc21 [Example 40, 2-(2-((7-chloro-1,2,3,4-tetrahydroisoquinolin-6-yl)amino)-5-(trifluoromethyl)pyrimidin-4-yl)-6,6-dimethyl-5,6-dihydro-4H-thieno[2,3-c]pyrrol-4-one] | ≤ 0.01 µM |
| COCCN1CCCc2sc(-c3nc(Nc4cc5c(cc4Cl)CNCC5)ncc3C(F)(F)F)cc2C1=O [Example 41, 2-(2-((7-chloro-1,2,3,4-tetrahydroisoquinolin-6-yl)amino)-5-(trifluoromethyl)pyrimidin-4-yl)-5-(2-methoxyethyl)-5,6,7,8-tetrahydro-4H-thieno[3,2-c]azepin-4-one] | 0.01 to 0.05 µM |
